According to patent US20260159484A1, “AKT3 MODULATORS” (GEORGIAMUNE LLC, priority 2021, published 2026):

The molecules below were run against T1, Akt3 (Mus musculus, UniProt Q9WUA6) (assay: Foxp3 induction assay (iTreg induction from CD4 conventional T cells); reported as Akt3 inhibition activity). Conditions: Foxp3 induction in CD4 Tconvs from C57/B16 mice, anti-CD3/anti-CD28, IL2, TGF-β, 3 days of culture, flow cytometry.
T1 construct: endogenous in cells; host or cells: primary CD4 conventional T cells (CD4+/CD25-) from C57BL/6 mice
T1 sequence (Q9WUA6 whole entry): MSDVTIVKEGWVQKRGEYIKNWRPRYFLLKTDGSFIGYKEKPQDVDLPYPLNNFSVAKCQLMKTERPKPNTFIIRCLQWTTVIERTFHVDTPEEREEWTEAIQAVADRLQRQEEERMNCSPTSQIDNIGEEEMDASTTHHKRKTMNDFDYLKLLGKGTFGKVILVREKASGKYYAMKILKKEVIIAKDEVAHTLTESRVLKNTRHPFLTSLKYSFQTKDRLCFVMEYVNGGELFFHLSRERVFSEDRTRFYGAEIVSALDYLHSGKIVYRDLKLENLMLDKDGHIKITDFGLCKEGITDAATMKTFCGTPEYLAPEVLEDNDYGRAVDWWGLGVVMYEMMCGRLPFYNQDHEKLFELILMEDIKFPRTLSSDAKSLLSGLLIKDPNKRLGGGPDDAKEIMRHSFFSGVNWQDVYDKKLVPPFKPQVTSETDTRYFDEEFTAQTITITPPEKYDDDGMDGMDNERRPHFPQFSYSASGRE
Format: cell-based
Protocol: Sorted or enriched (Miltenyi magnetic separation) CD4 conventional T cells (Tconvs -CD4+/CD25) from C57/B16 mice were used for the induction of iTregs. A 10 μg/mL plate-bound anti-CD3 antibody (50ul per well for 96-well plate), 2.5 μg/mL of soluble anti-CD28 antibody, 100 IU/mL of IL2 and 5 ng/mL of TGF-β in absence or presence of different concentrations of drug (usually titrating from 0.01 uM to 10 uM) were used. As negative control for induction, samples without TGF-β were used.
After 3 days of culture in presence of stimulation, TGF-β and drug, cells were stained with fixable live/dead cell stain (Life Technologies, NY) for gating and exclusion of toxic doses. The mouse Foxp3 buffer kit was used to fix and permeabilize cells according to the manufacturer's instructions (BD Bioscience, San Jose, CA). The anti-CD4 antibody and anti-Foxp3 antibody were used to stain the cells. After staining, cells were acquired using flow cytometer.

How did the IC50 turn out when `CC(=O)c1ccccc1NC(=O)c1ccc(Nc2c(C)cnc3ccccc23)cc1` [Compound 2, N-(2-acetylphenyl)-4-((3-methylquinolin-4-yl)amino)benzamide] was run?
The IC50 was under 1000 nM.

For `CC(=O)c1ccccc1NC(=O)Cc1ccc(Nc2c(C)cnc3ccccc23)cc1` [Compound 3, N-(2-acetylphenyl)-2-(4-((3-methylquinolin-4-yl)amino)phenyl)acetamide], which IC50 is on record?
The IC50 was under 1000 nM.

How did the IC50 turn out when `Cc1cnc2ccccc2c1Nc1ccc(CC(=O)Nc2ccccc2S(N)(=O)=O)cc1` [Compound 1, 2-(4-((3-methylquinolin-4-yl)amino)phenyl)-N-(2-sulfamoylphenyl)acetamide] was run?
The IC50 was under 1000 nM.

`CC(=O)c1cccc(NC(=O)Cc2ccc(Nc3cc(C)nc4ccccc34)cc2)c1` [Compound 5, N-(3-acetylphenyl)-2-(4-((2-methylquinolin-4-yl)amino)phenyl)acetamide] was tested. Which IC50 did it give?
Its IC50 is under 2000 nM.

Which IC50 does the source give for `CC(=O)c1cnccc1NC(=O)Cc1ccc(Nc2cc(C)nc3ccccc23)cc1` [Compound 6, N-(3-acetylpyridin-4-yl)-2-(4-((2-methylquinolin-4-yl)amino)phenyl)acetamide] here?
The IC50 was under 5000 nM.
